Earlier results as cited in patent US8389574B2, “Method useful for the prevention of type 2 diabetes and its complications in pre-diabetic patients with insulin resistance” (Sigma-Tau Industrie Farmaceutiche Riunite S.p.A., priority 2007, dated 2013).

Conditions: DPP participants at high risk for IGT and type 2 diabetes; over 3 years

CN(C)C(=N)N=C(N)N [metformin]
Reduction of risk of getting type 2 diabetes: 31%
